The results in this text go back to US20230391739A1, “ARYL DERIVATIVES FOR TREATING TRPM3 MEDIATED DISORDERS” (Katholieke Universiteit Leuven, priority 2020, published 2023).

This test concerns the target T1, mouse TRPM3α2 (mTRPM3) ion channel (Mus musculus, UniProt J9SQF3).
T1 construct: expressed in transfected cells; host or cells: flip-in HEK293
Description: TRPM3 ion channel driven Ca2+ uptake, Fluo-4 AM assay, PS-stimulated (mTRPM3). Particulars: TRPM3 overexpressing flip-in HEK293 cells stimulated with Pregnenolone sulfate (PS) 50 μM, activity ranges A, B, C. Type of test: cell-based. As to the method:
Monitoring the TRPM3 Ion Channel Driven Ca^2+ Uptake.
In order to monitor the inhibition of the mouse TRPM3α2 (mTRPM3) ion channel by the compounds of the invention, a cellular system making use of an mTRPM3alpha2 or hTRPM3 overexpressing cell line (flip-in HEK293) was used. The TRPM3 channel was stimulated/opened with Pregnenolone sulfate (PS) (50 μM) which results in Ca^2+ influx.
For mTRPM3, the intracellular Ca^2+ was measured with a Calcium responsive dye, Fluor-4 AM ester (Invitrogen). Cells were cultured until a confluence of 80-90%, washed with Versene (Invitrogen) and detached from the surface by a short incubation with 0.05% Trypsin (Invitrogen). The trypsination process was stopped by the addition of complete cell culture medium (DMEM, glutamax, 10% FCS, NEAA, Pen-Strep). Cells were collected and resuspended in Krebs buffer without Calcium at RT.
Prior the cell seeding (±2000 cells/well into a black, 384 well plate (Greiner)) the diluted compound was added in the assay plate, together with the PS dissolved in Krebs buffer containing Calcium. […] Directly after cell addition the plates were read on an Envision fluorescence reader (Perkin Elmer) by an Excitation of 485 nm and emission at 535 nm.
Channel inhibition was calculated compared to a non-PS stimulated control versus a condition stimulated with PS (50 μM) with vehicle. The ability of the compounds of the invention to inhibit this activity was determined as: Percentage inhibition=[1−((RFU determined for sample with test compound present−RFU determined for sample with positive control inhibitor) divided by (RFU determined in the presence of vehicle−RFU determined for sample with positive control inhibitor))]*100.
The activities of the Example compounds tested are depicted in the table below.

T1 sequence (J9SQF3 1-1709 isoform J9SQF3-12): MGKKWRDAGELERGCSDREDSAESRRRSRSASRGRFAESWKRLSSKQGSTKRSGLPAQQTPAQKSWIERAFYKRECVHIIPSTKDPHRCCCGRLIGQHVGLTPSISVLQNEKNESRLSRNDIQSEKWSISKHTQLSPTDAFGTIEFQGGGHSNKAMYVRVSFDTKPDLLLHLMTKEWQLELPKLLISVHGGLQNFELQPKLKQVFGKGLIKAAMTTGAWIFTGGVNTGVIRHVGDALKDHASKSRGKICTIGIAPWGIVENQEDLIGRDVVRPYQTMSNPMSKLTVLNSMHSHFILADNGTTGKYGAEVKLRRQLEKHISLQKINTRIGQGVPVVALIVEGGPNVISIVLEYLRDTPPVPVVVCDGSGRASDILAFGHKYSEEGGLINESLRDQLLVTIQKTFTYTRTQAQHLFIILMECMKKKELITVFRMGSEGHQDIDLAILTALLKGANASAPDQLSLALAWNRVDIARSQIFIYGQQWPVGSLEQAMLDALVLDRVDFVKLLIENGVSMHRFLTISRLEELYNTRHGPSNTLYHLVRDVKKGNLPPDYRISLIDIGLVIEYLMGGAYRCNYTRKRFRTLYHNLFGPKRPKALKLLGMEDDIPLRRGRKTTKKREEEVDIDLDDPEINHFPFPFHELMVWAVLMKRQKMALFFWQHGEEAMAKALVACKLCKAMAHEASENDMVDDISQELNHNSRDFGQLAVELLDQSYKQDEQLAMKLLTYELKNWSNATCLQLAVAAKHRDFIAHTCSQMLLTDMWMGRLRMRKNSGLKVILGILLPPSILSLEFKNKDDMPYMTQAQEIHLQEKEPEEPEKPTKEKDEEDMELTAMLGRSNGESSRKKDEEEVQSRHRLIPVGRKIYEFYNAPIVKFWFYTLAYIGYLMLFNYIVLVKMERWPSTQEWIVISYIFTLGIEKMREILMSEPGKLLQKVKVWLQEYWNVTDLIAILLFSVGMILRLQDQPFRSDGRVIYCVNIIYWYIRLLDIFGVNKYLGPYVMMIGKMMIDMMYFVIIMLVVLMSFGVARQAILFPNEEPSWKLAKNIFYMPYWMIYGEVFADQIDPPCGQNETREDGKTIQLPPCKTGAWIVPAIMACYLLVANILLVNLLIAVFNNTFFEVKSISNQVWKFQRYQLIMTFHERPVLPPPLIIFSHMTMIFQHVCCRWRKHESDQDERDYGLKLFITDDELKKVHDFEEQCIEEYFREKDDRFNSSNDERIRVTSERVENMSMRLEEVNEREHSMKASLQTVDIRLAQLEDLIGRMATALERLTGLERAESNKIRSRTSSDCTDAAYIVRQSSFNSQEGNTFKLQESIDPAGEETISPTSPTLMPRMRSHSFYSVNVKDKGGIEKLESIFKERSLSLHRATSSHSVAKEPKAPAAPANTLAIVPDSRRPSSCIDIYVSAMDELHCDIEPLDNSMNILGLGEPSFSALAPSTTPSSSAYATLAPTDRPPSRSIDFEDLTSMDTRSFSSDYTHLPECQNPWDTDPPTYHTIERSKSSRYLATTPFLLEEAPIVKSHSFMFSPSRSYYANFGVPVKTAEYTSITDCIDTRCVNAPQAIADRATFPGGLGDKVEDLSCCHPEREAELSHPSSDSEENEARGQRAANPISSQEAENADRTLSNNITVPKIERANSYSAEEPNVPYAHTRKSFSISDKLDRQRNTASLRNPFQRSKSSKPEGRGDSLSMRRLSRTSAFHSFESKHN

By IC50 is commonly meant the concentration needed to halve the response being measured. A high value points to weaker potency. With `Cc1oc2ccc(OCc3ccccc3)cc2c1C(=O)N1CCC(C(=O)OC(C)(C)C)CC1` [Cpd 237, tert-butyl 1-(5-(benzyloxy)-2-methylbenzofuran-3-carbonyl)piperidine-4-carboxylate], the IC50 was above 20 µM.
For `Cc1oc2ccc(OCc3ccccc3)cc2c1C(=O)O` [Cpd 002, 5-(benzyloxy)-2-methylbenzofuran-3-carboxylic acid] the value was below 1 µM.
On to `Cc1oc2ccc(OC(CO)c3ccccc3)cc2c1C(=O)NC1(CO)CCOCC1` (single isomer, unassigned) [Cpd 317-En 2, 5-(2-hydroxy-1-phenylethoxy)-N-(4-(hydroxymethyl)tetrahydro-2H-pyran-4-yl)-2-methylbenzofuran-3-carboxamide], for which the IC50 was 1 to 20 µM.
For `Cc1oc2ccc(OCc3ccccc3)cc2c1C(=O)N[C@H]1C[C@@H]2CN(C(=O)OC(C)(C)C)C[C@@H]2C1` [Cpd 259, tert-butyl trans-5-(5-(benzyloxy)-2-methylbenzofuran-3-carboxamido)hexahydrocyclopenta-[c]pyrrole-2(1H)-carboxylate] the value was 1 to 20 µM; for `Cc1oc2ccc(OCc3ccccc3)cc2c1C(=O)NC1CCN(C(=O)OC(C)(C)C)C(C)C1` (stereo not drawn) [Cpd 252, tert-butyl cis-4-(5-(benzyloxy)-2-methylbenzofuran-3-carboxamido)-2-methylpiperidine-1-carboxylate], 1 to 20 µM; for `Cc1oc2ccc(OCc3ccccc3)c(F)c2c1C(=O)NC1CNCC1(F)F` (single isomer, unassigned) [Cpd 298-En 1, 5-(benzyloxy)-N-(4,4-difluoropyrrolidin-3-yl)-4-fluoro-2-methylbenzofuran-3-carboxamide], below 1 µM.
As for `COC(=O)C1(NC(=O)c2c(C)oc3ccc(OCc4ccccc4)cc23)CCOCC1` [Cpd 212, methyl 4-(5-(benzyloxy)-2-methylbenzofuran-3-carboxamido)tetrahydro-2H-pyran-4-carboxylate], the figure is below 1 µM; as for `Cc1oc2ccc(OCc3c(F)cccc3Cl)cc2c1C(=O)N(C)C` [Cpd 065, 5-((2-chloro-6-fluorobenzyl)oxy)-N,N,2-trimethylbenzofuran-3-carboxamide], 1 to 20 µM.
For `Cc1oc2ccc(OCc3cccc(C(F)(F)F)c3)cc2c1C(=O)N[C@H]1CCNC1` [Cpd 204, (S)-2-methyl-N-(pyrrolidin-3-yl)-5-((3-(trifluoromethyl)benzyl)oxy)benzofuran-3-carboxamide] the value was below 1 µM; for `Cc1oc2ccc(OCc3ccccc3)cc2c1C(=O)NCCN1CCN(C)CC1` [Cpd 189, 5-(benzyloxy)-2-methyl-N-(2-(4-methylpiperazin-1-yl)ethyl)benzofuran-3-carboxamide], 1 to 20 µM; for `Cc1oc2ccc(OC(C)c3ccccc3)cc2c1C(=O)NC1(CO)CCOCC1` (single isomer, unassigned) [Cpd 308-En 1, N-(4-(hydroxymethyl)tetrahydro-2H-pyran-4-yl)-2-methyl-5-(1-phenylethoxy)benzofuran-3-carboxamide], below 1 µM.
Consider `Cc1oc2ccc(OCc3ccccc3)cc2c1C(=O)NCC1CCC(=O)N1` (stereo not shown) [Cpd 112, 5-(benzyloxy)-2-methyl-N-((5-oxopyrrolidin-2-yl)methyl)benzofuran-3-carboxamide], for which the IC50 is below 1 µM.
The compound `Cc1oc2c(Cl)cc(OCc3ccccc3)cc2c1C(=O)NC1CNCC1(F)F` (single isomer, unassigned) [Cpd 304-En 2, 5-(benzyloxy)-7-chloro-N-(4,4-difluoropyrrolidin-3-yl)-2-methylbenzofuran-3-carboxamide] came in with an IC50 above 20 µM.
For `Cc1oc2ccc(OCc3ccccc3)cc2c1C(=O)N[C@H]1CCCN(C2COC2)C1` [Cpd 206, (S)-5-(benzyloxy)-2-methyl-N-(1-(oxetan-3-yl)piperidin-3-yl)benzofuran-3-carboxamide] the value was 1 to 20 µM; for `Cc1oc2cc(F)c(OCc3ccccc3)cc2c1C(=O)NC1CNCC1(F)F` (single isomer, unassigned) [Cpd 302-En 1, 5-(benzyloxy)-N-(4,4-difluoropyrrolidin-3-yl)-6-fluoro-2-methylbenzofuran-3-carboxamide], below 1 µM; for `Cc1oc2ccc(OCc3ccccc3)cc2c1C(=O)NCC1CCNCC1` [Cpd 121, 5-(benzyloxy)-2-methyl-N-(piperidin-4-ylmethyl)benzofuran-3-carboxamide], 1 to 20 µM.
As for `Cc1oc2ccc(OCc3ccccc3)cc2c1C(=O)NC1CC(=O)N(C)C1` (stereo not shown) [Cpd 110, 5-(benzyloxy)-2-methyl-N-(1-methyl-5-oxopyrrolidin-3-yl)benzofuran-3-carboxamide], the figure is 1 to 20 µM.
`Cc1ccc(COc2ccc3oc(C)c(C(=O)N[C@H]4CCNC4)c3c2)cc1` [Cpd 085, (S)-2-methyl-5-((4-methylbenzyl)oxy)-N-(pyrrolidin-3-yl)benzofuran-3-carboxamide] registered an IC50 below 1 µM.
As for `Cc1oc2ccc(OCc3cccc(F)c3F)cc2c1C(=O)N[C@H]1CCNC1` [Cpd 135, (S)-5-((2,3-difluorobenzyl)oxy)-2-methyl-N-(pyrrolidin-3-yl)benzofuran-3-carboxamide], the concentration for half-maximal inhibition (IC50) was below 1 µM.
As for `Cc1oc2ccc(OCc3c(F)cccc3F)cc2c1C(=O)NC1CCNCC1(F)F` (stereo not shown) [Cpd 226, 5-((2,6-difluorobenzyl)oxy)-N-(3,3-difluoropiperidin-4-yl)-2-methylbenzofuran-3-carboxamide], the figure is below 1 µM.
For `Cc1oc2ccc(OC(C)c3ccccc3)cc2c1C(=O)N[C@@H](CO)C(N)=O` (single isomer, unassigned) [Cpd 336-Dia 2] the value was below 1 µM; for `Cc1oc2ccc(OCc3ccccc3F)cc2c1C(=O)N[C@@H]1COC[C@H]1O` (relative stereo) [Cpd 330-En 2], below 1 µM.
`Cc1oc2ccc(OCc3cccc(OC(F)(F)F)c3)cc2c1C(=O)O` [Cpd 028, 2-methyl-5-((3-(trifluoromethoxy)benzyl)oxy)benzofuran-3-carboxylic acid] returned a half-maximal inhibitory concentration (IC50) above 20 µM.
For `Cc1oc2ccc(OCc3ccccc3)cc2c1C(=O)N1CCC(NC(=O)OC(C)(C)C)CC1` [Cpd 248, tert-butyl (1-(5-(benzyloxy)-2-methylbenzofuran-3-carbonyl)piperidin-4-yl)carbamate] the value was above 20 µM; for `Cc1oc2ccc(OCc3c(F)cccc3F)cc2c1C(=O)N[C@H]1CCN(C(=O)OC(C)(C)C)C1` [Cpd 257, tert-butyl (S)-3-(5-((2,6-difluorobenzyl)oxy)-2-methylbenzofuran-3-carboxamido)pyrrolidine-1-carboxylate], 1 to 20 µM.
In turn, `Cc1cccc(COc2ccc3oc(C)c(C(=O)N[C@H]4CCNC4)c3c2)c1` [Cpd 084, (S)-2-methyl-5-((3-methylbenzyl)oxy)-N-(pyrrolidin-3-yl)benzofuran-3-carboxamide] came in with an IC50 below 1 µM.
For `Cc1oc2ccc(OCc3ccccc3)cc2c1C(=O)NC1CN(C(=O)OC(C)(C)C)CCC1F` (single isomer, unassigned) [Cpd 255-Dia 1, tert-butyl 3-(5-(benzyloxy)-2-methylbenzofuran-3-carboxamido)-4-fluoropiperidine-1-carboxylate] the value was below 1 µM; for `Cc1oc2ccc(OC(C)c3ccccc3)cc2c1C(=O)NC1(C(N)=O)CCC1` (single isomer, unassigned) [Cpd 343-En 2, N-(1-carbamoylcyclobutyl)-2-methyl-5-(1-phenylethoxy)benzofuran-3-carboxamide], below 1 µM.
The compound `Cc1oc2ccc(OCc3ccccc3F)cc2c1C(=O)NC1COCC1(F)F` (single isomer, unassigned) [Cpd 331-En 1] gave an IC50 above 20 µM.
In turn, `Cc1oc2ccc(OCc3ccccc3S(C)(=O)=O)cc2c1C(=O)NC1CCN(C)CC1` [Cpd 242, 2-methyl-N-(1-methylpiperidin-4-yl)-5-((2-(methylsulfonyl)benzyl)oxy)benzofuran-3-carboxamide] registered an IC50 above 20 µM.
For `Cc1oc2ccc(OCc3ccccc3)cc2c1C(=O)N[C@@H]1CCCN(C2COC2)C1` [Cpd 207, (R)-5-(benzyloxy)-2-methyl-N-(1-(oxetan-3-yl)piperidin-3-yl)benzofuran-3-carboxamide] the value was below 1 µM; for `Cc1oc2ccc(OCc3ccccc3F)cc2c1C(=O)NC1(C(N)=O)CCOC1` (single isomer, unassigned) [Cpd 323-En 2, N-(3-carbamoyltetrahydrofuran-3-yl)-5-((2-fluorobenzyl)oxy)-2-methylbenzofuran-3-carboxamide], below 1 µM; for `Cc1oc2ccc(OCc3ccccc3)cc2c1C(=O)N1CCN(c2ccccn2)CC1` [Cpd 214, (5-(benzyloxy)-2-methylbenzofuran-3-yl)(4-(pyridin-2-yl)piperazin-1-yl)methanone], 1 to 20 µM.
As for `Cc1oc2ccc(OCc3ccccc3)cc2c1C(=O)Nc1ccncc1` [Cpd 060, 5-(benzyloxy)-2-methyl-N-(pyridin-4-yl)benzofuran-3-carboxamide], the figure is below 1 µM.
